Test results published in ChEMBL document CHEMBL1136512, “Discovery of a novel series of 6-azauracil-based thyroid hormone receptor ligands: potent, TR beta subtype-selective thyromimetics” (Bioorg Med Chem Lett, 2003).

Molecular target: T1, Thyroid hormone receptor beta (Homo sapiens, UniProt P10828)
T1 sequence (P10828 whole entry): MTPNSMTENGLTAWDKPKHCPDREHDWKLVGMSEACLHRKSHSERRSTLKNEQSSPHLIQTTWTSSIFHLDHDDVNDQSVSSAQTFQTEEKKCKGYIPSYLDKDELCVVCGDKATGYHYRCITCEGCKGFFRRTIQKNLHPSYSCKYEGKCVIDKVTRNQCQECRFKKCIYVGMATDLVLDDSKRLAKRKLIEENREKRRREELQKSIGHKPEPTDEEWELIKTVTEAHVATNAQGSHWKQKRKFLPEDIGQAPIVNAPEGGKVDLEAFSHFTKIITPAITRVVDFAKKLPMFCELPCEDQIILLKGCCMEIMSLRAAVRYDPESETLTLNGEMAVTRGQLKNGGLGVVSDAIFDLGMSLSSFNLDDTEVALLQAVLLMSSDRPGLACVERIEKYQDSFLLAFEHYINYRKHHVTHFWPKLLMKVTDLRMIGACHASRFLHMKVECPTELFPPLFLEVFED

Q: `O=c1cnn(-c2cc(Cl)c(Oc3ccc(O)c(S(=O)(=O)n4ccc5ccccc54)c3)c(Cl)c2)c(=O)[nH]1` was tested. Which Ki did it give?
A: Its Ki is 0.23 nM.

Q: For `O=c1cnn(-c2cc(Cl)c(Oc3ccc(O)c(S(=O)(=O)NC4CCC4)c3)c(Cl)c2)c(=O)[nH]1`, which Ki is on record?
A: Its Ki is 0.4 nM.

Q: With `O=c1cnn(-c2cc(Cl)c(Oc3ccc(O)c(S(=O)(=O)N4CCCCC4)c3)c(Cl)c2)c(=O)[nH]1` as the compound, how does the Ki read?
A: Its Ki is 0.02 nM.

Q: With `Cc1cc(-n2ncc(=O)[nH]c2=O)cc(Cl)c1Oc1ccc(O)c(S(=O)(=O)N2CCOCC2)c1` as the compound, how does the Ki read?
A: Its Ki is 27 nM.

Q: How did the Ki turn out when `O=C(NC1CCC1)c1cc(Oc2c(Cl)cc(-n3ncc(=O)[nH]c3=O)cc2Cl)ccc1O` was run?
A: The Ki was 0.64 nM.

Q: `O=C(c1cc(Oc2c(Cl)cc(-n3ncc(=O)[nH]c3=O)cc2Cl)ccc1O)N1CCOCC1` was tested. Which Ki did it give?
A: Its Ki is 0.72 nM.

Q: Which Ki does the source give for `Cc1cc(N2CCCNC2=O)cc(C)c1Oc1ccc(O)c(C(C)C)c1` here?
A: The Ki was 10000 nM.

Q: For `O=C(c1cc(Oc2c(Cl)cc(-n3ncc(=O)[nH]c3=O)cc2Cl)ccc1O)N1CCCCC1`, which Ki is on record?
A: Its Ki is 0.63 nM.

Q: Which Ki does the source give for `O=c1cnn(-c2cc(Cl)c(Oc3ccc(O)c(S(=O)(=O)N4C5CCC4CC4(C5)OCCO4)c3)c(Cl)c2)c(=O)[nH]1` here?
A: The Ki was 0.31 nM.

Q: `Cc1cc(-n2ncc(=O)[nH]c2=O)cc(Cl)c1Oc1ccc(O)c(S(=O)(=O)N2CCCCC2)c1` was tested. Which Ki did it give?
A: The Ki was 0.13 nM.

Q: With `O=c1cnn(-c2cc(Cl)c(Oc3ccc(O)c(S(=O)(=O)N4C5CCC4CC4(CCCO4)C5)c3)c(Cl)c2)c(=O)[nH]1` (stereo unspecified) as the compound, how does the Ki read?
A: Its Ki is 0.28 nM.

Q: `O=c1cnn(-c2cc(Cl)c(Oc3ccc(O)c(S(=O)(=O)Nc4ccccc4)c3)c(Cl)c2)c(=O)[nH]1` was tested. Which Ki did it give?
A: The Ki was 0.1 nM.

Q: With `Cc1cc(-n2ncc(=O)[nH]c2=O)cc(Cl)c1Oc1ccc(O)c(S(=O)(=O)N2CCN(C)CC2)c1` as the compound, how does the Ki read?
A: Its Ki is 13 nM.

Q: Which Ki does the source give for `Cc1cc(-n2ncc(=O)[nH]c2=O)cc(C)c1Oc1ccc(O)c(S(=O)(=O)N2CCCCC2)c1` here?
A: The Ki was 0.46 nM.

Q: Which Ki does the source give for `O=c1cnn(-c2cc(Cl)c(Oc3ccc(O)c(S(=O)(=O)NC4CCCCC4)c3)c(Cl)c2)c(=O)[nH]1` here?
A: Its Ki is 0.46 nM.

Q: `Cc1cc(-n2ncc(=O)[nH]c2=O)cc(Cl)c1Oc1ccc(O)c(C(=O)N2CCCCC2)c1` was tested. Which Ki did it give?
A: The Ki was 1.9 nM.

Q: How did the Ki turn out when `O=C(NC1CCCCC1)c1cc(Oc2c(Cl)cc(-n3ncc(=O)[nH]c3=O)cc2Cl)ccc1O` was run?
A: The Ki was 0.07 nM.

Q: With `CSc1ccc(Oc2c(C)cc(-n3ncc(=O)[nH]c3=O)cc2C)cc1C` as the compound, how does the Ki read?
A: The Ki was 2 nM.

Q: Which Ki does the source give for `O=C(c1cc(Oc2c(Cl)cc(-n3ncc(=O)[nH]c3=O)cc2Cl)ccc1O)N1CC2CCC1C2` (racemic; endo) here?
A: The Ki was 0.16 nM.

Q: For `O=C(c1cc(Oc2c(Cl)cc(-n3ncc(=O)[nH]c3=O)cc2Cl)ccc1O)N1CC2CCC1C2` (racemic; exo), which Ki is on record?
A: Its Ki is 0.59 nM.

Q: For `O=C(c1cc(Oc2c(Cl)cc(-n3ncc(=O)[nH]c3=O)cc2Cl)ccc1O)N1CC2CCC1C2` (stereo in doubt; 9h (R)-(+)), which Ki is on record?
A: The Ki was 0.37 nM.

Q: With `CC1(C)C2CCC(NC(=O)c3cc(Oc4c(Cl)cc(-n5ncc(=O)[nH]c5=O)cc4Cl)ccc3O)C1C2` (stereo in doubt; 9i) as the compound, how does the Ki read?
A: Its Ki is 0.06 nM.

Q: Which Ki does the source give for `CC1(C)C2CCC(NC(=O)c3cc(Oc4c(Cl)cc(-n5ncc(=O)[nH]c5=O)cc4Cl)ccc3O)C1C2` (stereo in doubt; 9j) here?
A: Its Ki is 0.04 nM.

Molecular target: T1, Thyroid hormone receptor beta
Test: Effective concentration binding towards TR-beta-1 in E25B2 cells (agonistic activity)

Q: How did the EC50 turn out when `O=c1cnn(-c2cc(Cl)c(Oc3ccc(O)c(S(=O)(=O)N4C5CCC4CC4(CCCO4)C5)c3)c(Cl)c2)c(=O)[nH]1` (stereo unspecified) was run?
A: Its EC50 is 62 nM.

Molecular target: T2, Thyroid hormone receptor alpha (Homo sapiens, UniProt P10827)
T2 sequence (P10827 whole entry): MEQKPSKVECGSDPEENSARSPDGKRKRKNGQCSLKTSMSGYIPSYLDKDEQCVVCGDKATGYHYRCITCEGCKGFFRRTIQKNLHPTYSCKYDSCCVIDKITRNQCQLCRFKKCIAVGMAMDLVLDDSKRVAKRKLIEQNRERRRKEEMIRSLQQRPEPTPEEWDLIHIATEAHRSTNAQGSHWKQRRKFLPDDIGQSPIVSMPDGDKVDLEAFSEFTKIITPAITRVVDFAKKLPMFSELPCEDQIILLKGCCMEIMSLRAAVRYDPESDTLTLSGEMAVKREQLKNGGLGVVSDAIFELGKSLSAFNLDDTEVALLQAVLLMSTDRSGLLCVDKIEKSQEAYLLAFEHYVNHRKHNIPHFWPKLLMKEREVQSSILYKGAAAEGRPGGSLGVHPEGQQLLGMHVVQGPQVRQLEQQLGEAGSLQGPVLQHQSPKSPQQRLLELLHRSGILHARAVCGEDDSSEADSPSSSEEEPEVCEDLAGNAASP
Description: Effective concentration binding towards TRalpha in E25B2 cells (agonistic activity)

Q: With `O=c1cnn(-c2cc(Cl)c(Oc3ccc(O)c(S(=O)(=O)N4C5CCC4CC4(CCCO4)C5)c3)c(Cl)c2)c(=O)[nH]1` (stereo unspecified) as the compound, how does the EC50 read?
A: Its EC50 is 1500 nM.

Q: How did the EC50 turn out when `CC1(C)C2CCC(NC(=O)c3cc(Oc4c(Cl)cc(-n5ncc(=O)[nH]c5=O)cc4Cl)ccc3O)C1C2` (stereo in doubt; 9i) was run?
A: The EC50 was 12 nM.
